Results reported in ChEMBL document CHEMBL1135030, “Antitumor agents. Part 212. Bucidarasins A-C, three new cytotoxic clerodane diterpenes from Bucida buceras” (Bioorg Med Chem Lett, 2002).
pIC50: −log10 of the molar value.

Columns and labels:
HCT-8 [1] = assay: In vitro cytotoxicity against parental and drug resistant ileococal human tumor cell line HCT-8; type: functional, cell-based
KB [2] = assay: In vitro cytotoxicity against parental and drug resistant etoposide resistant human tumor cell line KB-7d; type: functional, cell-based
KB [3] = assay: In vitro cytotoxicity against parental and drug resistant camptothecin resistant human tumor cell line KB-CPT; type: functional, cell-based
HOS [4] = assay: In vitro cytotoxicity against parental and drug resistant bone human tumor cell line HOS; type: functional, cell-based
CAKI-1 [5] = assay: In vitro cytotoxicity against parental and drug resistant kidney human tumor cell line CAKI; type: functional, cell-based
SK-MEL-2 [6] = assay: In vitro cytotoxicity against parental and drug resistant melanoma human tumor cell line SK-MEL-2; type: functional, cell-based
KB [7] = assay: In vitro cytotoxicity against parental and drug resistant vincristine resistant human tumor cell line KB-VIN; type: functional, cell-based
U-87 MG [8] = assay: In vitro cytotoxicity against parental and drug resistant glioblastoma human tumor cell line U87MG; type: functional, cell-based, U-87MG ATCC
MCF7 [9] = assay: In vitro cytotoxicity against parental and drug resistant breast human tumor cell line MCF-7; type: functional, cell-based
1A9/ptx-10 [10] = assay: In vitro cytotoxicity against parental and drug resistant paclitaxel human tumor cell line IA9-PTX10; type: functional, cell-based
A549 [11] = assay: In vitro cytotoxicity against parental and drug resistant lung human tumor cell line A549; type: functional, cell-based
KB [12] = assay: In vitro cytotoxicity against parental and drug resistant nasopharyngeal human tumor cell line KB; type: functional, cell-based
1A9 [13] = assay: In vitro cytotoxicity against parental and drug resistant ovarian human tumor cell line IA9; type: functional, cell-based
CAKI-1 [14] = assay: In vitro cytotoxicity against parental and drug resistant kidney human tumor cell line CAKI; Not active at 10 uM; type: functional, cell-based
A549 [15] = assay: Percentage inhibition against parental and drug resistant lung human tumor cell line A549 at 10 uM; type: functional
HOS [16] = assay: In vitro cytotoxicity against parental and drug resistant bone human tumor cell line HOS; Not active at 10 uM; type: functional, cell-based
SK-MEL-2 [17] = assay: Percentage inhibition against parental and drug resistant melanoma human tumor cell line SK-MEL-2 at 10 uM; type: functional
KB [18] = assay: Percentage inhibition against parental and drug resistant vincristine resistant human tumor cell line KB-VIN at 10 uM; type: functional
MCF7 [19] = assay: In vitro cytotoxicity against parental and drug resistant breast human tumor cell line MCF-7 at 10 uM; type: functional
1A9/ptx-10 [20] = assay: In vitro cytotoxicity against parental and drug resistant paclitaxel human tumor cell line IA9-PTX10; Not active at 10 uM; type: functional, cell-based
1A9 [21] = assay: In vitro cytotoxicity against parental and drug resistant ovarian human tumor cell line IA9; Not active at 10 uM; type: functional, cell-based
KB [22] = assay: Percentage inhibition against parental and drug resistant nasopharyngeal human tumor cell line KB at 10 uM; type: functional
HCT-8 [23] = assay: In vitro cytotoxicity against parental and drug resistant ileococal human tumor cell line HCT-8; Not active at 10 uM; type: functional, cell-based
KB [24] = assay: In vitro cytotoxicity against parental and drug resistant camptothecin resistant human tumor cell line KB-CPT; Not active at 10 uM; type: functional, cell-based
KB [25] = assay: Tested for cytotoxicity against parental and drug resistant etoposide resistant human tumor cell line KB-7d; type: functional, cell-based
KB [26] = assay: Percentage inhibition against parental and drug resistant etoposide resistant human tumor cell line KB-7d at 10 uM; type: functional
U-87 MG [27] = assay: In vitro cytotoxicity against parental and drug resistant glioblastoma human tumor cell line U87MG; Not active at 10 uM; type: functional, cell-based; settings: u-87mg atcc

C=C/C(C)=C/C[C@]1(C)[C@H]2C[C@H](OC(=O)C(C)CC)C=C3[C@H](OC(C)=O)O[C@H](OC(C)=O)[C@@]32[C@H](O)C[C@@H]1C (stereo partly drawn) [CASEARLUCIN A]
pIC50 (HCT-8 [1]): 5.89
pIC50 (KB [2]): 5.96
pIC50 (KB [3]): 5.96
pIC50 (HOS [4]): 5.92
pIC50 (CAKI-1 [5]): 5.72
pIC50 (SK-MEL-2 [6]): 6.00
pIC50 (KB [7]): 5.92
pIC50 (U-87 MG [8]): 5.85
pIC50 (MCF7 [9]): 5.74
pIC50 (1A9/ptx-10 [10]): 5.96
pIC50 (A549 [11]): 5.96
pIC50 (KB [12]): 5.96
pIC50 (1A9 [13]): 6.00

C=C/C(C)=C/C[C@@]1(C)[C@@H](C)CC[C@]2(COC(C)=O)C(COC(C)=O)=CC(=O)C[C@@H]21
IC50 (CAKI-1 [14]): Not Active
inhibition at 10 µM (A549 [15]): 6%
IC50 (HOS [16]): Not Active
inhibition at 10 µM (SK-MEL-2 [17]): 7%
inhibition at 10 µM (KB [18]): 22%
inhibition at 10 µM (MCF7 [19]): 12%
IC50 (1A9/ptx-10 [20]): Not Active
IC50 (1A9 [21]): Not Active
inhibition at 10 µM (KB [22]): 7%
pIC50 (SK-MEL-2 [6]): < 5.00
IC50 (HCT-8 [23]): Not Active
IC50 (KB [24]): Not Active
pIC50 (KB [7]): < 5.00
pIC50 (MCF7 [9]): < 5.00
pIC50 (A549 [11]): < 5.00
pIC50 (KB [25]): < 5.00
inhibition at 10 µM (KB [26]): 23%
IC50 (U-87 MG [27]): Not Active
pIC50 (KB [12]): < 5.00

C=C/C(C)=C/C[C@@]1(C)[C@@H](C)C[C@@H](O)C23C(=C[C@@H](OC(=O)C(C)C)C[C@@H]21)[C@H](OC(C)=O)O[C@@H]3OC(C)=O (stereo partly drawn)
pIC50 (HCT-8 [1]): 6.05
pIC50 (KB [2]): 6.10
pIC50 (KB [3]): 6.10
pIC50 (HOS [4]): 6.10
pIC50 (CAKI-1 [5]): 5.96
pIC50 (SK-MEL-2 [6]): 6.15
pIC50 (KB [7]): 5.96
pIC50 (U-87 MG [8]): 6.00
pIC50 (MCF7 [9]): 6.05
pIC50 (1A9/ptx-10 [10]): 6.30
pIC50 (A549 [11]): 6.30
pIC50 (KB [12]): 6.05
pIC50 (1A9 [13]): 6.30

C=C/C(C)=C/C[C@@]1(C)[C@@H](C)CCC23C(=C[C@@H](OC(=O)C(C)C)C[C@@H]21)[C@H](OC(C)=O)O[C@@H]3OC(C)=O (stereo partly drawn)
pIC50 (HCT-8 [1]): 6.00
pIC50 (KB [2]): 6.05
pIC50 (KB [3]): 6.05
pIC50 (HOS [4]): 6.05
pIC50 (CAKI-1 [5]): 5.74
pIC50 (SK-MEL-2 [6]): 6.00
pIC50 (KB [7]): 6.00
pIC50 (U-87 MG [8]): 5.92
pIC50 (MCF7 [9]): 5.96
pIC50 (1A9/ptx-10 [10]): 6.30
pIC50 (A549 [11]): 5.96
pIC50 (KB [12]): 6.05
pIC50 (1A9 [13]): 6.22
